Among the targets are Histamine H1 receptor (Homo sapiens, UniProt P35367); Adenosine receptor A2a (Homo sapiens, UniProt P29274); Histamine H3 receptor (Homo sapiens, UniProt Q9Y5N1); Vasopressin V1a receptor (Homo sapiens, UniProt P37288); Vasopressin V2 receptor (Homo sapiens, UniProt P30518).
The target of experiment [1] is T1, Alpha-2C adrenergic receptor (Homo sapiens, UniProt P18825).
T1 sequence (P18825 whole entry): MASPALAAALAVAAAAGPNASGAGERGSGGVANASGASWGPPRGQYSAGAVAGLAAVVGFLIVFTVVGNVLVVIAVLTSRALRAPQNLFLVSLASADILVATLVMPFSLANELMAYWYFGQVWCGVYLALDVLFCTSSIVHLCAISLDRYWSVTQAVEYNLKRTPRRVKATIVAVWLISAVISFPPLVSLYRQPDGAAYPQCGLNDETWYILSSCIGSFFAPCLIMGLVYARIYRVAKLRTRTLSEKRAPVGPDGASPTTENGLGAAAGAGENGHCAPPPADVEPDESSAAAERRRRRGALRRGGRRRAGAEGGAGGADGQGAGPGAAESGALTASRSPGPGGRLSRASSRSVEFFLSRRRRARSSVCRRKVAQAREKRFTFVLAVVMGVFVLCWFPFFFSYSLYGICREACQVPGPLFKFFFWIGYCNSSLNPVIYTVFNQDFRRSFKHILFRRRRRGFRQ
Format: functional.

In experiment [2] the target is Sodium-dependent noradrenaline transporter (Homo sapiens, UniProt P23975).
For the next experiment, the target named is T2, Adenosine receptor A1 (Homo sapiens, UniProt P30542).
T2 sequence (P30542 whole entry): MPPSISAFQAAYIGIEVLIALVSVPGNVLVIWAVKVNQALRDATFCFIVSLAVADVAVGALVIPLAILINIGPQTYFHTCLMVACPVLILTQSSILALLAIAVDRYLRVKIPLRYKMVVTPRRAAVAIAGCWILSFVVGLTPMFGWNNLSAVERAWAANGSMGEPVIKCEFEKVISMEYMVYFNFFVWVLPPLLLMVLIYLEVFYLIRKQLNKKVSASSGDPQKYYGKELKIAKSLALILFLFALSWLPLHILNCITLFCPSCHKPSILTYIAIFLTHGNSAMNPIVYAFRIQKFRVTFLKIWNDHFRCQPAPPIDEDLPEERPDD

The next experiment has as its target Cannabinoid receptor 1 (Homo sapiens, UniProt P21554). The class given is functional, cell-based.
The target in experiment [3] is T3, 5-hydroxytryptamine receptor 2B (Homo sapiens, UniProt P41595). Format: functional, cell-based.
The target in experiment [4] is T3, 5-hydroxytryptamine receptor 2B. The class given is functional, cell-based. This is another data set of the same source.
The target in experiment [5] is Muscarinic acetylcholine receptor M3 (Homo sapiens, UniProt P20309).
The target in experiment [6] is T4, Alpha-2A adrenergic receptor (Homo sapiens, UniProt P08913).
T4 sequence (P08913 whole entry): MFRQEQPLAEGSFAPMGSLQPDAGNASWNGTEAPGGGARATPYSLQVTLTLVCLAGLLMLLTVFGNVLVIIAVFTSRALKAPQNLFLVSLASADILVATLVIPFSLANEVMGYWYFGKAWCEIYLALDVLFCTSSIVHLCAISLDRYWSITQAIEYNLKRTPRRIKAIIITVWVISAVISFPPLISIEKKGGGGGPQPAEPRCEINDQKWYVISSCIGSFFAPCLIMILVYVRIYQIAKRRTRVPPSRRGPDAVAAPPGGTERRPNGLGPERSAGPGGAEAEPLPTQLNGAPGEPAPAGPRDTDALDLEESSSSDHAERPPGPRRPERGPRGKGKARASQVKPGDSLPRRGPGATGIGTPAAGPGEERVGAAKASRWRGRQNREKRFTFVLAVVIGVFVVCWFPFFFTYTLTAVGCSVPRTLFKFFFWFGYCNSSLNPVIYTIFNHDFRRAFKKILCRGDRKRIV
The class given is functional, cell-based.

The next experiment deals with T5, B2 bradykinin receptor (Homo sapiens, UniProt P30411).
T5 sequence (P30411 whole entry): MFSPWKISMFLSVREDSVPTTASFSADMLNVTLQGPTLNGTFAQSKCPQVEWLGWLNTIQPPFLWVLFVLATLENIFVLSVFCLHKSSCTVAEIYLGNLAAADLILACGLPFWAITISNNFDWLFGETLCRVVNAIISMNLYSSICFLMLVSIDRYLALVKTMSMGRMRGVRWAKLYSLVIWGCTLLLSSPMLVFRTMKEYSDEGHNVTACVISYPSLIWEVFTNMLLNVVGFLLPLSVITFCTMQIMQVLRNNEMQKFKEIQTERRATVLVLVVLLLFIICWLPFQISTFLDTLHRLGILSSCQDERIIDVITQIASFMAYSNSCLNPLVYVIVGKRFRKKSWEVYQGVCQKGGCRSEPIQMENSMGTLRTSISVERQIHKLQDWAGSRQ

Experiment [7] addresses Gamma-aminobutyric acid receptor subunit alpha-1 (Rattus norvegicus, UniProt P62813). The class given is functional.
For experiment [8], the target named is Growth hormone secretagogue receptor type 1 (Homo sapiens, UniProt Q92847).
Experiment [9] concerns the target Kappa-type opioid receptor (Homo sapiens, UniProt P41145).

Experimental findings from ChEMBL document CHEMBL5291721, “A preclinical secondary pharmacology resource illuminates target-adverse drug reaction associations of marketed drugs” (Nat Commun, 2023) are described below.

Some results are limits rather than exact numbers.
Further: assay procedure not described here.

Sequence of Sodium-dependent noradrenaline transporter (P23975 whole entry): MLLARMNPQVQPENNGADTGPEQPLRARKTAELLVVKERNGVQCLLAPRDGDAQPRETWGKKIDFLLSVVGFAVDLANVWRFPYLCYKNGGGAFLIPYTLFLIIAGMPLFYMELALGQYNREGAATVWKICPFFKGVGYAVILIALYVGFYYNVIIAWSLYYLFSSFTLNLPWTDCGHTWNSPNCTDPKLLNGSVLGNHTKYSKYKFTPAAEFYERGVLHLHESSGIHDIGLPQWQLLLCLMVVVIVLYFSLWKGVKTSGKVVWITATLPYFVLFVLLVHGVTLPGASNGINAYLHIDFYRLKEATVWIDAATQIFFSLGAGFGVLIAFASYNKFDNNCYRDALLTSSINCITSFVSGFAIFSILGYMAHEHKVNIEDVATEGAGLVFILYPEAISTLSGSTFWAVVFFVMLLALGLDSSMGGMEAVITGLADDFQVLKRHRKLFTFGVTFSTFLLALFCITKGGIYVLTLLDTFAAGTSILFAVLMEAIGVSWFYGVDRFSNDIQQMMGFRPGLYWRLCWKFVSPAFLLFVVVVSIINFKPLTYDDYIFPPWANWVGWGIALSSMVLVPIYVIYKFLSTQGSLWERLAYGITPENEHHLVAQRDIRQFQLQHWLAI
T3 sequence (P41595 whole entry): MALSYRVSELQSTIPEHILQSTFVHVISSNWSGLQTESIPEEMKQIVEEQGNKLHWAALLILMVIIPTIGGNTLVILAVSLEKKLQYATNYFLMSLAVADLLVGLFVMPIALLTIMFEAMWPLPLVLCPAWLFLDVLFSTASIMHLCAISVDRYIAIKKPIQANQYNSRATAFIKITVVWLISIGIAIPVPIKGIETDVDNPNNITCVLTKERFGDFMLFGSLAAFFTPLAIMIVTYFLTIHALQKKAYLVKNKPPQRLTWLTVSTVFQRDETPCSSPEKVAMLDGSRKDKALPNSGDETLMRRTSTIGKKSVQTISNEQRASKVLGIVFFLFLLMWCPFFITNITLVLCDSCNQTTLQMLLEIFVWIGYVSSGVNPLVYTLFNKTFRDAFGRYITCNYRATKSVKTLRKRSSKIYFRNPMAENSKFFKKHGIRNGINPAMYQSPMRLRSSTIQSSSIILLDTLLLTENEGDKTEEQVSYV
Sequence of Adenosine receptor A2a (P29274 whole entry): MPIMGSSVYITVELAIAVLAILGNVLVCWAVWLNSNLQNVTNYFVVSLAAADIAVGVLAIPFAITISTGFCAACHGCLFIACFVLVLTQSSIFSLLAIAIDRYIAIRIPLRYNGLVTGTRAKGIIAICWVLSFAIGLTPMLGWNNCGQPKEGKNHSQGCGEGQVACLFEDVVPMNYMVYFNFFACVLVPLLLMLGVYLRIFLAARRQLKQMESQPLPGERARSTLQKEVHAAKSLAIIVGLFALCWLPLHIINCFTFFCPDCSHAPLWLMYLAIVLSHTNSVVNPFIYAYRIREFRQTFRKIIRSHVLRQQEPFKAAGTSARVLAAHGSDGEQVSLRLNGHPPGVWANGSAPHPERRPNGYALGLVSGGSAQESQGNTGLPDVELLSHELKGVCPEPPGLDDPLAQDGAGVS
Sequence of Vasopressin V2 receptor (P30518 whole entry): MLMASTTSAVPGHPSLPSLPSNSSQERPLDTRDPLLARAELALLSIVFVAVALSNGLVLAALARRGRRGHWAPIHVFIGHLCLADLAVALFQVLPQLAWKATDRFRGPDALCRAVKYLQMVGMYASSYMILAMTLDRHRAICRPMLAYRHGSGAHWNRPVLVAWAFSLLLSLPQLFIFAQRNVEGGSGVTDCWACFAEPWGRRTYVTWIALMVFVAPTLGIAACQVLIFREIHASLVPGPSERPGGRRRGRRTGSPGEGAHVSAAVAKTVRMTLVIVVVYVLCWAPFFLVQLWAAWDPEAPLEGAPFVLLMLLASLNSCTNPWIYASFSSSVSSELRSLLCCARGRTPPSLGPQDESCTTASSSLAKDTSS
Sequence of Kappa-type opioid receptor (P41145 whole entry): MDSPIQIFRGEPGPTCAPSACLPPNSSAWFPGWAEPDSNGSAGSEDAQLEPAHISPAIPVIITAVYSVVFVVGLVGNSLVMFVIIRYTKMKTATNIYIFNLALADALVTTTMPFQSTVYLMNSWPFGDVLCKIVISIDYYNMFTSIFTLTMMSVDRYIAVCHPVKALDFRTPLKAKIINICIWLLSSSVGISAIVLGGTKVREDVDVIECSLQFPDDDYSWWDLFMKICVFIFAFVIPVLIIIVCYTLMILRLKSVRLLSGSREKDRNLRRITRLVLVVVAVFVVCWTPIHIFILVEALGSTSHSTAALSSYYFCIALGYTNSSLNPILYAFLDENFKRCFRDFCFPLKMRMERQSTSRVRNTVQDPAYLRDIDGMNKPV
Sequence of Vasopressin V1a receptor (P37288 whole entry): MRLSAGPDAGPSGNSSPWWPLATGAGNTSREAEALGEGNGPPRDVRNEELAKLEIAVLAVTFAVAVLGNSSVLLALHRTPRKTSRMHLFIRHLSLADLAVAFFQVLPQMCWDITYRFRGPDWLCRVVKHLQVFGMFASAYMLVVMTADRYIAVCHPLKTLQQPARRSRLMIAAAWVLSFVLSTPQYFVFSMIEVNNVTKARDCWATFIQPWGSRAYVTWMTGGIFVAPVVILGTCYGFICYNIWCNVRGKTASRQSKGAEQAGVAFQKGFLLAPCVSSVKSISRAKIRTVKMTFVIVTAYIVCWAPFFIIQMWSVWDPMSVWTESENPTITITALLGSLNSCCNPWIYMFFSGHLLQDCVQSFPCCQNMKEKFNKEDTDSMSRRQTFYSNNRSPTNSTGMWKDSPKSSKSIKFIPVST
Sequence of Gamma-aminobutyric acid receptor subunit alpha-1 (P62813 whole entry): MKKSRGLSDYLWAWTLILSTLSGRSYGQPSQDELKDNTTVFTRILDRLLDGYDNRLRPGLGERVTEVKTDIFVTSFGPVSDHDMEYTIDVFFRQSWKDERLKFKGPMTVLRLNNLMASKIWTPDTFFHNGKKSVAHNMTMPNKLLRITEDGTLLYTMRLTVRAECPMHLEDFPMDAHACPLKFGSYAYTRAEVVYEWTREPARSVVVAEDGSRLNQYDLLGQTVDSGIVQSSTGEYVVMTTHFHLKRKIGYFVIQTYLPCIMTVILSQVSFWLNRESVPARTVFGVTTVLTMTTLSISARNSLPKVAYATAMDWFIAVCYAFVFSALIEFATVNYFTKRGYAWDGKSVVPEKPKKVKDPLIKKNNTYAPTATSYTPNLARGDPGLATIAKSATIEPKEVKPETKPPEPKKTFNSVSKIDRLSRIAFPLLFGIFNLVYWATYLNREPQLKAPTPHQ
Sequence of Histamine H3 receptor (Q9Y5N1 whole entry): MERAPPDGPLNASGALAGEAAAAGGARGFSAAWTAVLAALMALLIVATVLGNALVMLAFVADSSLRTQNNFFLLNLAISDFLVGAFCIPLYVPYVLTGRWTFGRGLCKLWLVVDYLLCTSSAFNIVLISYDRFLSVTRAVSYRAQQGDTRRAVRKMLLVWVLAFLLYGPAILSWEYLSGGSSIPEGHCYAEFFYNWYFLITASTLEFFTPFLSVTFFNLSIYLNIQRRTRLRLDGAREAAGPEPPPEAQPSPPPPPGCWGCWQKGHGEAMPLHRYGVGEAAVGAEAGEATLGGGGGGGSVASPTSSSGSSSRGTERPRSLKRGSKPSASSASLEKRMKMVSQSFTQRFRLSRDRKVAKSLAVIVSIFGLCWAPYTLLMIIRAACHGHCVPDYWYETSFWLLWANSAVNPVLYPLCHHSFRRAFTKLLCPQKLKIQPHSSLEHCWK
Sequence of Histamine H1 receptor (P35367 whole entry): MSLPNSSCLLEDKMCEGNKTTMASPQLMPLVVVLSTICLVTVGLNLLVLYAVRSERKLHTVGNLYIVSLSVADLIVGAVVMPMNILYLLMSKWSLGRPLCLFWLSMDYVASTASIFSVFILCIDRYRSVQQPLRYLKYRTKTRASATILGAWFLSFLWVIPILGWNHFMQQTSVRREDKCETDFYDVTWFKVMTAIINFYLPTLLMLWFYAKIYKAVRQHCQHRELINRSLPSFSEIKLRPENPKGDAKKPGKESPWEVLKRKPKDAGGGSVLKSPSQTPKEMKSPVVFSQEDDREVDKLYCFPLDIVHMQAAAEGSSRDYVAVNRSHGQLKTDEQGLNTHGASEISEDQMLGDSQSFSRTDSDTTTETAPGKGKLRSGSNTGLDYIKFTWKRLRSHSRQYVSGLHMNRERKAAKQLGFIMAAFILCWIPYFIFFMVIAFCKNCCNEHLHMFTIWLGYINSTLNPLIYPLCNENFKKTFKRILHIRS
Sequence of Growth hormone secretagogue receptor type 1 (Q92847 whole entry): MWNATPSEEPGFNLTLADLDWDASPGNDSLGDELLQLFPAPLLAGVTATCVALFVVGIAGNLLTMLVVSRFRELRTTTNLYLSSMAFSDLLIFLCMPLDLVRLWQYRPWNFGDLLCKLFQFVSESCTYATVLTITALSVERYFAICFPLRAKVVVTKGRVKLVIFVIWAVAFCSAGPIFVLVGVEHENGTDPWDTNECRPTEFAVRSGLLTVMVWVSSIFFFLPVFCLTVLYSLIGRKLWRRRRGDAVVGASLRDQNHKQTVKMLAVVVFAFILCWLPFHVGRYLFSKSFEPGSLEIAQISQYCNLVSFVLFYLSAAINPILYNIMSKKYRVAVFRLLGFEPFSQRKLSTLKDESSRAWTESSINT
Sequence of Cannabinoid receptor 1 (P21554 whole entry): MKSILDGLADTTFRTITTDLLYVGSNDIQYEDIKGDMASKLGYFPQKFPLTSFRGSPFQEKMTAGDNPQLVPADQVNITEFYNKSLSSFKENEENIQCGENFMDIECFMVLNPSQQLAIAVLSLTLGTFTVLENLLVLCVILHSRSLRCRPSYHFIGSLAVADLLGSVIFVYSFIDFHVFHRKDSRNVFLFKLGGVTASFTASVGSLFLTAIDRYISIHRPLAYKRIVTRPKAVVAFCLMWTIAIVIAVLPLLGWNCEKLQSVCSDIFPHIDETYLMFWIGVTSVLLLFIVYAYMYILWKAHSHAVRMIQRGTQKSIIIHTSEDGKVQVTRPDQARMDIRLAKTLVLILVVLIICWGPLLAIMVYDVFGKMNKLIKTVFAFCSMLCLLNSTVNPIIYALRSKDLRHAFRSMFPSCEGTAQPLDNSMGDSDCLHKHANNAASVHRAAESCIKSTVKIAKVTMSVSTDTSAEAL

For orientation: AC50 means the concentration giving half of the maximal activity seen. The low end stands for activity at low concentration, the high end for activity only at high concentration. With `CC(C[N+](C)(C)C)OC(N)=O` (stereo not drawn) [BETHANECHOL], the half-maximal activity concentration (AC50) in [1] is greater than 10 µM; in experiment [2], greater than 10 µM; at Histamine H1 receptor it was greater than 10 µM; at Adenosine receptor A1 it was greater than 10 µM; at Adenosine receptor A2a, greater than 10 µM; on Cannabinoid receptor 1 it was greater than 30 µM. Besides, the half-maximal activity concentration (AC50) at Histamine H3 receptor was greater than 10 µM; in [3] it was greater than 10 µM; in [4], greater than 10 µM; at Vasopressin V1a receptor, greater than 10 µM; in experiment [5], greater than 30 µM; in experiment [6], greater than 10 µM. Besides, the AC50 (at B2 bradykinin receptor; on Vasopressin V2 receptor; in experiment [7]; in experiment [8]; in experiment [9]) was greater than 10 µM each time.
As to `COc1ccc2c3c1O[C@H]1[C@@H](O)C=C[C@H]4[C@@H](C2)N(C)CC[C@@]341` [CODEINE], the AC50 was greater than 10 µM in experiment [1]; greater than 30 µM in experiment [2]; greater than 10 µM on Histamine H1 receptor; greater than 30 µM on Adenosine receptor A1; greater than 30 µM at Adenosine receptor A2a; greater than 30 µM at Cannabinoid receptor 1. For the same molecule, the AC50 is greater than 10 µM on Histamine H3 receptor; greater than 10 µM in experiment [3]; greater than 10 µM in [4]; greater than 30 µM at Vasopressin V1a receptor; greater than 30 µM in experiment [5]; greater than 10 µM in [6]. The AC50 at B2 bradykinin receptor was greater than 30 µM; at Vasopressin V2 receptor, greater than 30 µM; in [7] it was greater than 10 µM; in [8], greater than 30 µM.
For `CCCCc1ncc(/C=C(\Cc2cccs2)C(=O)O)n1Cc1ccc(C(=O)O)cc1` [EPROSARTAN], the half-maximal activity concentration (AC50) was greater than 10 µM in experiment [1]; greater than 30 µM in experiment [2]; greater than 10 µM at Histamine H1 receptor; greater than 10 µM on Adenosine receptor A1; greater than 10 µM at Adenosine receptor A2a; greater than 30 µM at Cannabinoid receptor 1. The AC50 on Histamine H3 receptor is greater than 10 µM; in [3], greater than 10 µM; in [4], greater than 10 µM; on Vasopressin V1a receptor it was greater than 30 µM; in experiment [5] it was greater than 10 µM; in experiment [6] it was greater than 10 µM. Also, the concentration at half-maximal activity (AC50) was greater than 30 µM on B2 bradykinin receptor; greater than 30 µM at Vasopressin V2 receptor; greater than 10 µM in [7]; greater than 10 µM in experiment [8]; greater than 10 µM in [9].
As for `CCCc1nc(C(C)(C)O)c(C(=O)OCc2oc(=O)oc2C)n1Cc1ccc(-c2ccccc2-c2nnn[nH]2)cc1` [OLMESARTAN MEDOXOMIL], the AC50 is greater than 10 µM in experiment [1]; greater than 30 µM in experiment [2]; greater than 10 µM on Histamine H1 receptor; greater than 50 µM on Adenosine receptor A1; greater than 10 µM on Adenosine receptor A2a; greater than 30 µM on Cannabinoid receptor 1. Besides, the concentration at half-maximal activity (AC50) in [3] is greater than 10 µM; in experiment [4] it was greater than 10 µM; on Vasopressin V1a receptor it was greater than 30 µM; in experiment [5], greater than 10 µM; in experiment [6] it was greater than 10 µM; on B2 bradykinin receptor, greater than 30 µM. In addition, the concentration at half-maximal activity (AC50) at Vasopressin V2 receptor is greater than 30 µM; in experiment [7], greater than 10 µM; in experiment [8] it was greater than 50 µM; in experiment [9], greater than 10 µM.
In the case of `COc1ccc2c3c1O[C@H]1C(=O)CC[C@@]4(O)[C@@H](C2)N(C)CC[C@]314` [OXYCODONE], the concentration at half-maximal activity (AC50) (in [2]; on Histamine H1 receptor; at Adenosine receptor A1; on Adenosine receptor A2a; at Cannabinoid receptor 1; at Histamine H3 receptor) was greater than 30 µM throughout. In addition, the AC50 (in experiment [3]; in [4]; on Vasopressin V1a receptor; in experiment [5]; in [6]; at B2 bradykinin receptor) was greater than 30 µM in each case. Also, the half-maximal activity concentration (AC50) (on Vasopressin V2 receptor; in [7]; in experiment [8]) was greater than 30 µM each time.
Regarding `CN1CCC(=C2c3ccccc3CCc3sccc32)CC1` [PIZOTYLINE], the AC50 in [1] is 2.1 µM; in experiment [2] it was 1.1 µM; at Histamine H1 receptor, 0.0047 µM; on Adenosine receptor A1, greater than 30 µM; on Adenosine receptor A2a, greater than 30 µM; on Cannabinoid receptor 1, greater than 30 µM. The AC50 is greater than 10 µM on Histamine H3 receptor; greater than 30 µM in experiment [3]; 0.0279 µM in experiment [4]; greater than 30 µM at Vasopressin V1a receptor; greater than 10 µM in experiment [5]; 3.97 µM in [6]. Moreover, the AC50 on B2 bradykinin receptor was greater than 30 µM; on Vasopressin V2 receptor, greater than 30 µM; in experiment [7] it was greater than 10 µM; in [8], greater than 30 µM; in experiment [9], 1.57 µM.
Turning to `CN1C(=O)C(O)N=C(c2ccccc2)c2cc(Cl)ccc21` (stereo not drawn) [TEMAZEPAM], the AC50 in experiment [1] was greater than 10 µM; in experiment [2] it was greater than 10 µM; on Histamine H1 receptor it was greater than 10 µM; on Adenosine receptor A1, greater than 30 µM; on Adenosine receptor A2a, greater than 30 µM; at Cannabinoid receptor 1 it was greater than 30 µM. The half-maximal activity concentration (AC50) (at Histamine H3 receptor; in experiment [3]; in experiment [4]; at Vasopressin V1a receptor; in experiment [5]; in experiment [6]) was greater than 10 µM throughout. The concentration at half-maximal activity (AC50) at B2 bradykinin receptor was greater than 30 µM; at Vasopressin V2 receptor it was greater than 30 µM; in experiment [7], 0.044 µM; in [8], greater than 30 µM; in [9] it was 9.19 µM.
Regarding `C/C(O)=C(\C#N)C(=O)Nc1ccc(C(F)(F)F)cc1` [TERIFLUNOMIDE], the AC50 (in [1]; in experiment [2]; on Histamine H1 receptor; on Adenosine receptor A1; at Adenosine receptor A2a; at Cannabinoid receptor 1) was greater than 30 µM throughout. Further, the AC50 (at Histamine H3 receptor; in [3]; in [4]; at Vasopressin V1a receptor; in experiment [5]; in experiment [6]) was greater than 30 µM each time. Also, the concentration at half-maximal activity (AC50) in experiment [7] and in [8] was greater than 30 µM in each case.
Turning to `CN1CCN(CC/C=C2/c3ccccc3Sc3ccc(S(=O)(=O)N(C)C)cc32)CC1` [THIOTHIXENE], the AC50 in experiment [2] is greater than 10 µM; at Adenosine receptor A1 it was greater than 30 µM; at Adenosine receptor A2a, 11.6 µM; at Cannabinoid receptor 1, greater than 30 µM; in experiment [3], greater than 10 µM; in experiment [4], 4.9 µM. Further, the AC50 was greater than 10 µM on Vasopressin V1a receptor; greater than 10 µM in experiment [5]; 5.9 µM in experiment [6]; greater than 30 µM on B2 bradykinin receptor; 20 µM on Vasopressin V2 receptor; greater than 10 µM in experiment [7]. For the same molecule, the AC50 in experiment [8] is 25.3 µM; in experiment [9] it was 11.6 µM.
